The values that follow come from ChEMBL document CHEMBL1201862, “PubChem BioAssay data set” (2004).

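1) Cells in 96-well plates. 2) Compound, 48 h, 5 concentrations. 3) Linear interpolation between surrounding doses. 4) Unreached endpoint = highest concentration. Abbreviation: GI50, concentration required for 50% inhibition of growth.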 Calls of active or inactive are those of the source. Cut-off read from the data, not from the text of the source: active = GI50 up to about 1.1 µM and inactive = higher.

Among the test systems are OVCAR-8; SW-620; UO-31; NCI-H23; SK-MEL-5; SNB-19; HCT-15; A549; NCI-H460; K562; COLO 205; OVCAR-4; SN12C; SNB-75; CCRF-CEM; HL-60; LOX IMVI; SK-MEL-28; KM12; SF-539.
What all share (assay): NCI tumour cell line growth inhibition, 48 h

For `CC(=O)OC(OC(C)=O)n1cc(C=O)c2ccccc21`, the GI50 in the experiment with OVCAR-8 was > 100 µM (inactive); with SW-620, > 100 µM (inactive); in the experiment with UO-31 it was 63.5 µM (inactive); with NCI-H23, > 100 µM (inactive); with SK-MEL-5 it was > 100 µM (inactive); in the experiment on SNB-19, > 100 µM (inactive). Moreover, the GI50 in the experiment on HCT-15 is more than 100 µM; with A549 it was > 100 µM (inactive); in the experiment on NCI-H460, > 100 µM (inactive); in the experiment on K562, > 100 µM (inactive); in the experiment with COLO 205, > 100 µM (inactive); in the experiment with OVCAR-4, > 100 µM (inactive). For the same compound, the GI50 with SN12C is > 100 µM (inactive); in the experiment on SNB-75, > 10 µM (inactive); in the experiment on CCRF-CEM, > 100 µM (inactive); with HL-60 it was > 100 µM (inactive); in the experiment with LOX IMVI it was > 100 µM (inactive); with SK-MEL-28, > 100 µM (inactive).

Turning to `CC1(C)OP23(NC(=O)OC2(C(F)(F)F)c2ccccc2O3)OC1(C)C` (stereo unspecified), the GI50 in the experiment with KM12, in the experiment on OVCAR-8, with UO-31, with NCI-H23, in the experiment with SK-MEL-5 and with SNB-19 was > 100 µM (inactive) in each case. The GI50 is more than 100 µM with HCT-15; > 100 µM (inactive) in the experiment with A549; > 100 µM (inactive) in the experiment on NCI-H460; > 100 µM (inactive) in the experiment with K562; > 100 µM (inactive) in the experiment on OVCAR-4; > 100 µM (inactive) with SN12C. Further, the GI50 in the experiment with SNB-75, in the experiment on CCRF-CEM, in the experiment with HL-60, in the experiment with LOX IMVI, in the experiment with SK-MEL-28 and with SF-539 was > 100 µM (inactive) throughout.

Take `CN(/N=C1\C(=O)Nc2ccccc21)c1ccccc1`: the GI50 in the experiment with KM12 was 29.6 µM (inactive); in the experiment on OVCAR-8 it was 26.4 µM (inactive); with SW-620, > 100 µM (inactive); with UO-31, 11.8 µM (inactive); in the experiment with NCI-H23, 74.6 µM (inactive); with SK-MEL-5, 32.6 µM (inactive). For the same compound, the GI50 with SNB-19 is > 100 µM (inactive); in the experiment with HCT-15 it was 44.2 µM; with A549, 72.9 µM (inactive); with NCI-H460, 91.8 µM (inactive); in the experiment with K562, > 100 µM (inactive); in the experiment on COLO 205, > 10 µM (inactive). Further, the GI50 in the experiment on OVCAR-4 is 95.3 µM (inactive); in the experiment on SNB-75, 2.32 µM (inactive); with CCRF-CEM, 58.7 µM (inactive); with HL-60, 56.5 µM (inactive); with LOX IMVI, > 100 µM (inactive); in the experiment with SK-MEL-28 it was > 100 µM (inactive). In the experiment with SF-539, the GI50 is 41.2 µM (inactive).

For `COc1cc(C2C(C(=O)O)=C(CO)Oc3cc4c(cc32)OCO4)cc(OC)c1O` (stereo unspecified), the GI50 was > 100 µM (inactive) with OVCAR-8; > 100 µM (inactive) with SW-620; > 100 µM (inactive) in the experiment on UO-31; > 100 µM (inactive) in the experiment on SK-MEL-5; > 100 µM (inactive) with SNB-19; more than 100 µM in the experiment on HCT-15. The GI50 in the experiment on A549, in the experiment on NCI-H460, in the experiment with K562, in the experiment on COLO 205, in the experiment with OVCAR-4 and with SN12C was > 100 µM (inactive) in each case. Besides, the GI50 with SNB-75, in the experiment with CCRF-CEM, with HL-60, in the experiment with LOX IMVI, in the experiment on SK-MEL-28 and in the experiment with SF-539 was > 100 µM (inactive) throughout.

Consider `C[Si](C)(C)/C=C/CN1C(=O)CCC1=O`, for which the GI50 in the experiment with KM12, with SW-620, in the experiment on UO-31, in the experiment with NCI-H23, in the experiment with SK-MEL-5 and in the experiment with SNB-19 was > 100 µM (inactive) in each case. For the same compound, the GI50 with HCT-15 was more than 100 µM; with A549, > 100 µM (inactive); in the experiment with NCI-H460 it was > 100 µM (inactive); with K562, > 100 µM (inactive); in the experiment on COLO 205, > 100 µM (inactive); in the experiment with SN12C, > 100 µM (inactive). Moreover, the GI50 in the experiment with SNB-75 was 83.2 µM (inactive); with CCRF-CEM it was > 100 µM (inactive); with HL-60, > 100 µM (inactive); in the experiment on LOX IMVI, > 100 µM (inactive); in the experiment with SK-MEL-28, > 100 µM (inactive); in the experiment on SF-539, > 100 µM (inactive).

As for `ClCC1(CCl)COC1`, the GI50 in the experiment with KM12, with OVCAR-8, in the experiment on SW-620, with UO-31, in the experiment with NCI-H23 and in the experiment with SK-MEL-5 was > 100 µM (inactive) each time. The GI50 in the experiment with SNB-19 is > 100 µM (inactive); in the experiment on HCT-15 it was more than 100 µM; with A549, > 100 µM (inactive); in the experiment with NCI-H460, > 100 µM (inactive); with K562, > 100 µM (inactive); with COLO 205 it was > 100 µM (inactive). Also, the GI50 with OVCAR-4, in the experiment on SN12C, in the experiment on SNB-75, in the experiment on CCRF-CEM, in the experiment with HL-60 and in the experiment with LOX IMVI was > 100 µM (inactive) each time. Further, the GI50 in the experiment with SK-MEL-28 is > 100 µM (inactive).

As to `CN(C)C(=S)/N=c1\ssc(=S)n1C`, the GI50 in the experiment on KM12, in the experiment with OVCAR-8, in the experiment with SW-620, in the experiment with UO-31, with NCI-H23 and with SK-MEL-5 was > 100 µM (inactive) in each case. Further, the GI50 with SNB-19 was > 100 µM (inactive); in the experiment with HCT-15, more than 100 µM; in the experiment with A549 it was > 100 µM (inactive); with NCI-H460, > 100 µM (inactive); in the experiment with K562, > 100 µM (inactive); in the experiment with OVCAR-4, > 100 µM (inactive). For the same compound, the GI50 in the experiment on SN12C, with SNB-75, in the experiment on CCRF-CEM, in the experiment on HL-60, with SK-MEL-28 and in the experiment on SF-539 was > 100 µM (inactive) each time.

Take `CC(=O)C1CC[C@@H]2[C@H](CC[C@]3(C)[C@@H](O)CC[C@@H]23)[C@H]1C(=O)O` (stereo partly specified): the GI50 with KM12, in the experiment on OVCAR-8, with SW-620, with UO-31, with NCI-H23 and in the experiment on SK-MEL-5 was > 100 µM (inactive) in each case. Moreover, the GI50 is > 100 µM (inactive) in the experiment on SNB-19; more than 100 µM with HCT-15; > 100 µM (inactive) in the experiment on A549; > 100 µM (inactive) in the experiment with NCI-H460; > 100 µM (inactive) in the experiment on K562; > 100 µM (inactive) in the experiment on COLO 205. For the same compound, the GI50 in the experiment with OVCAR-4, with CCRF-CEM, with HL-60, with SK-MEL-28 and in the experiment with SF-539 was > 100 µM (inactive) each time.

In the case of `O=C(O)C12CCCCC1CCCC2` (stereo unspecified), the GI50 in the experiment on KM12, in the experiment with OVCAR-8, in the experiment on SW-620, in the experiment with NCI-H23, in the experiment with SK-MEL-5 and in the experiment on SNB-19 was > 100 µM (inactive) in each case. The GI50 in the experiment with HCT-15 is more than 100 µM; in the experiment on A549, > 100 µM (inactive); in the experiment on NCI-H460, > 100 µM (inactive); with K562, > 100 µM (inactive); in the experiment with COLO 205, > 100 µM (inactive); in the experiment on OVCAR-4, > 100 µM (inactive). For the same compound, the GI50 is > 100 µM (inactive) in the experiment with SN12C; 98.2 µM (inactive) in the experiment on SNB-75; > 100 µM (inactive) in the experiment with CCRF-CEM; > 100 µM (inactive) in the experiment with HL-60; > 100 µM (inactive) in the experiment on LOX IMVI; > 100 µM (inactive) in the experiment on SK-MEL-28. In the experiment with SF-539, the GI50 was > 100 µM (inactive).

As to `COc1c(Br)cc(CC(N)=O)c(O)c1Br`, the GI50 in the experiment with KM12, with OVCAR-8, in the experiment with SW-620, in the experiment with UO-31, in the experiment with NCI-H23 and in the experiment on SK-MEL-5 was > 100 µM (inactive) in each case. The GI50 in the experiment on SNB-19, in the experiment on A549, with K562, with COLO 205, with OVCAR-4 and with SN12C was > 100 µM (inactive) in each case. For the same compound, the GI50 with SNB-75, with CCRF-CEM, in the experiment with HL-60, with LOX IMVI, with SK-MEL-28 and in the experiment on SF-539 was > 100 µM (inactive) throughout.

On to `O=C(O)Cc1cc(F)ccc1C(=O)O`, for which the GI50 with KM12, in the experiment on OVCAR-8, in the experiment with SW-620, in the experiment with UO-31, with NCI-H23 and in the experiment with SK-MEL-5 was > 100 µM (inactive) in each case. Also, the GI50 in the experiment on SNB-19 was > 100 µM (inactive); with HCT-15, 73.5 µM; in the experiment on A549, > 100 µM (inactive); with NCI-H460, > 100 µM (inactive); in the experiment with K562, > 100 µM (inactive); in the experiment on COLO 205 it was > 100 µM (inactive). Also, the GI50 was > 100 µM (inactive) in the experiment on SN12C; 80.4 µM (inactive) in the experiment with SNB-75; > 100 µM (inactive) in the experiment on CCRF-CEM; > 100 µM (inactive) in the experiment on HL-60; > 100 µM (inactive) in the experiment on LOX IMVI; 60.3 µM (inactive) in the experiment on SK-MEL-28. The GI50 with SF-539 was > 100 µM (inactive).
